Values joined by “and” are separate entries in the source; they are usually repeats but may differ in a detail not shown here. Equal entries are not always repeated. Where two headings read alike, the source gives them in different places.
Tested on: HPAFII
Test: ATP depletion cytotoxicity assay 48 hr
Assay type: cell-based, human

O=C(O)C(F)(F)C(F)(F)C(F)(F)C(F)(F)C(F)(F)C(F)(F)C(F)(F)F [CXR1002]
IC50 (Homo sapiens, HPAF-II, 48 h, read-out: IC50 1-4 (independent replicates), ATP depletion, 48 hrs, HPAFII): > 1000 µM | IC50 (Homo sapiens, HPAF-II, 48 h, read-out: IC50 Mean, ATP depletion, 48 hrs, HPAFII): > 1000 µM | IC50 (read-out: IC50 1-4 (independent replicates), ATP depletion, 48 hrs, HPAFII): > 1000 µM and 750 µM

— patent US20130029928A1 (priority 2010, published 2013)
